Numbering of substitutions follows the chain as printed.
Key:
[1] = target: PDGFRb (Homo sapiens, UniProt P09619); test: Kinase assay (33P-ATP filter-binding), PDGFRb; type: biochemical; settings: read-out: Kinase Selectivity PDGFRb
Protocol: (§1) The kinase assays were carried out briefly as follows. Substrate was prepared in Base Reaction Buffer (20 mM Hepes (pH 7.5), 10 mM MgCl2, 1 mM EGTA, 0.02% Brij35, 0.02 mg/ml BSA, 0.1 mM Na3VO4, 2 mM DTT, 1% DMSO). The indicated kinases was delivered into the substrate solution and allowed to gently mix. Next, the specific compound was delivered in DMSO into the kinase mixture by Acoustic technology (Echo550; nanoliter range), and allowed to incubate for 20 minutes at room temperature. Next, ^33P-ATP was delivered into the reaction mixture to initiate the reaction and allowed to incubate at room temperature. After 2 hours, the reactions were spotted onto P81 ion exchange paper and the kinase activity is detected by the filter-binding method.

[2] = target: AMPK; test: Kinase assay (33P-ATP filter-binding), AMPK; type: biochemical; settings: read-out: Kinase Selectivity AMPK
Protocol: as §1

[3] = target: T1, ALK5 (Homo sapiens, UniProt P36897); test: Kinase assay (33P-ATP filter-binding), ALK5; type: biochemical; settings: read-out: Kinase Selectivity ALK5
T1 sequence (P36897 34-503): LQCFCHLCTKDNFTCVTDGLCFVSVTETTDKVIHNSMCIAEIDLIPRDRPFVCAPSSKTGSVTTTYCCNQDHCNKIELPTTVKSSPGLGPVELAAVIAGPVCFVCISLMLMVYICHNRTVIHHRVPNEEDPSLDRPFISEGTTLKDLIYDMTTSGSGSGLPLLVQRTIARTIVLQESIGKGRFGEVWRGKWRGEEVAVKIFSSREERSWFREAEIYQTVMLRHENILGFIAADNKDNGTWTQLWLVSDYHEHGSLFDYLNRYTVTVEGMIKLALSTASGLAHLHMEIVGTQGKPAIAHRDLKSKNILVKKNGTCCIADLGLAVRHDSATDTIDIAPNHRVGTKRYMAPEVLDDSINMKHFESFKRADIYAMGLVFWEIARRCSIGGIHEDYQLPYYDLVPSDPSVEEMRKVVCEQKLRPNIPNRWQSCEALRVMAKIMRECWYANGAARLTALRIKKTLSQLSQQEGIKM
Protocol: as §1

[4] = target: ALK1/ACVRL1 (Homo sapiens, UniProt P37023); test: Kinase assay (33P-ATP filter-binding), ALK1; type: biochemical; settings: read-out: Kinase Selectivity ALK1/ACVRL1
Chain of ALK1/ACVRL1 (P37023 22-503): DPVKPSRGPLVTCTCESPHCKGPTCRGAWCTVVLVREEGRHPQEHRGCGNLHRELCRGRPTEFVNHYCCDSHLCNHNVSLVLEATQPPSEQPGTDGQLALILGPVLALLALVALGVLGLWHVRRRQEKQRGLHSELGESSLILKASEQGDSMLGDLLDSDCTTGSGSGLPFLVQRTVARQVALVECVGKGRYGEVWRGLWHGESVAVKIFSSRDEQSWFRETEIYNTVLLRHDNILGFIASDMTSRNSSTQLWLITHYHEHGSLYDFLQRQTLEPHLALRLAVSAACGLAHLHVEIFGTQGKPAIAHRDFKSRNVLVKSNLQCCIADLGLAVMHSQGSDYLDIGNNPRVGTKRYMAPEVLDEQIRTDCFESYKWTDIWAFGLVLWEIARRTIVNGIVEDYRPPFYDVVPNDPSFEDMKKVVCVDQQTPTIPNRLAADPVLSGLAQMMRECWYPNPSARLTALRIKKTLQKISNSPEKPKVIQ
Summary of the method: (§2)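 After 20 minutes of compound–kinase–substrate preincubation at room temperature in Hepes pH 7.5 buffer (MgCl2, EGTA, Brij35, BSA, vanadate, DTT, 1% DMSO), 33P-ATP was added. Reactions ran 2 hours at room temperature before spotting on P81 ion exchange paper for filter-binding detection.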

[5] = Intrinsic clearance, human; type: in vitro ADME; settings: human
[6] = target: T2, ALK2/ACVR1 (Homo sapiens, UniProt Q04771); test: Kinase assay (33P-ATP filter-binding), ALK2; type: biochemical; settings: 20 mM; read-out: Kinase Selectivity ALK2/ACVR1 (20 mM)
T2 sequence (Q04771 21-509): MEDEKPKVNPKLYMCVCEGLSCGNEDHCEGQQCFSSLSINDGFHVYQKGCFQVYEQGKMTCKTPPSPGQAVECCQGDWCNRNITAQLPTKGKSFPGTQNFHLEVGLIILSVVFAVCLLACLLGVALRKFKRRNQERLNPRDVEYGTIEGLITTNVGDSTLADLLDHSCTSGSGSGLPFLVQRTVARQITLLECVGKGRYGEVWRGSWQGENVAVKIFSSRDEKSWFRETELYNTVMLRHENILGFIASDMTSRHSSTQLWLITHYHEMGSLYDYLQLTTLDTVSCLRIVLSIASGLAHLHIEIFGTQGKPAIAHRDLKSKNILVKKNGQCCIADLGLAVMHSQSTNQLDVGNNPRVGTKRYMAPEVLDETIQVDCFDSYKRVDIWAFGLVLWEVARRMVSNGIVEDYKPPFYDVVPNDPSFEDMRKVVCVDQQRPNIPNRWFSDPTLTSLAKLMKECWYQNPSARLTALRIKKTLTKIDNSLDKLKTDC
Summary of the method: as §2

[7] = target: ALK3/BMPR1A (Homo sapiens, UniProt P36894); test: Kinase assay (33P-ATP filter-binding), ALK3; type: biochemical; settings: 1 mM; read-out: Kinase Selectivity ALK3/BMPR1A (1 mM)
Chain of ALK3/BMPR1A (P36894 24-532): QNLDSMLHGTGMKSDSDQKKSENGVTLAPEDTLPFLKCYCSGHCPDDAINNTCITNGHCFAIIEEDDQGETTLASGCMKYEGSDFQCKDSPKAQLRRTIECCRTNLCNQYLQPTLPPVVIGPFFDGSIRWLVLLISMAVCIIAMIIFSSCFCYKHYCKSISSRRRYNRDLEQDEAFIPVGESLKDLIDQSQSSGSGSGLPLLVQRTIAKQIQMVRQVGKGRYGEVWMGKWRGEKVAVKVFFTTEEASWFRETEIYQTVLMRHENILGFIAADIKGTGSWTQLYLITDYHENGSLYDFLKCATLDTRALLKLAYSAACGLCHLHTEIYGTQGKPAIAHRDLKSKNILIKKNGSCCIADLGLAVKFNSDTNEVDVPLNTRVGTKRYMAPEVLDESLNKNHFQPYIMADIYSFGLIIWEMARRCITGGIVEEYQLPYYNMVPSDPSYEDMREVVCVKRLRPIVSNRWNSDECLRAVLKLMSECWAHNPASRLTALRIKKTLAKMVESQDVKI
Summary of the method: as §2

[8] = target: ALK6 (Homo sapiens, UniProt O00238); test: Kinase assay (33P-ATP filter-binding), ALK6; type: biochemical; settings: read-out: Kinase Selectivity ALK6
Chain of ALK6 (O00238 14-502): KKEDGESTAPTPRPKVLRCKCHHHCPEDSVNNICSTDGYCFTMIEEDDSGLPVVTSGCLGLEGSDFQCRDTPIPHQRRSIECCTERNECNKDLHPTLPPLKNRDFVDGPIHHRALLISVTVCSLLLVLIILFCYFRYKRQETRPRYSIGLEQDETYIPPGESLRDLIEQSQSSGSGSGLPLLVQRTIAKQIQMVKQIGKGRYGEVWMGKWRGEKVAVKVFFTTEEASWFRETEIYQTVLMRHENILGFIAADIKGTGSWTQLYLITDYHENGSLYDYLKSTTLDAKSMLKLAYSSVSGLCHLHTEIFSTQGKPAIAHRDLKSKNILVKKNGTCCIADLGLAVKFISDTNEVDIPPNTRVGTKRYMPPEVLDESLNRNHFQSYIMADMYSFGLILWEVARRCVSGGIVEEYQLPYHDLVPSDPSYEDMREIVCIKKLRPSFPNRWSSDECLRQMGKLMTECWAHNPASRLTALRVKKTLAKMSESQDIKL
Protocol: as §1

[9] = Intrinsic clearance, mouse; type: in vitro ADME; settings: mouse
[10] = target: KDR (Homo sapiens, UniProt P35968); test: Kinase assay (33P-ATP filter-binding), KDR; type: biochemical; settings: read-out: Kinase Selectivity KDR
Chain of KDR (P35968 20-1356, species assumed): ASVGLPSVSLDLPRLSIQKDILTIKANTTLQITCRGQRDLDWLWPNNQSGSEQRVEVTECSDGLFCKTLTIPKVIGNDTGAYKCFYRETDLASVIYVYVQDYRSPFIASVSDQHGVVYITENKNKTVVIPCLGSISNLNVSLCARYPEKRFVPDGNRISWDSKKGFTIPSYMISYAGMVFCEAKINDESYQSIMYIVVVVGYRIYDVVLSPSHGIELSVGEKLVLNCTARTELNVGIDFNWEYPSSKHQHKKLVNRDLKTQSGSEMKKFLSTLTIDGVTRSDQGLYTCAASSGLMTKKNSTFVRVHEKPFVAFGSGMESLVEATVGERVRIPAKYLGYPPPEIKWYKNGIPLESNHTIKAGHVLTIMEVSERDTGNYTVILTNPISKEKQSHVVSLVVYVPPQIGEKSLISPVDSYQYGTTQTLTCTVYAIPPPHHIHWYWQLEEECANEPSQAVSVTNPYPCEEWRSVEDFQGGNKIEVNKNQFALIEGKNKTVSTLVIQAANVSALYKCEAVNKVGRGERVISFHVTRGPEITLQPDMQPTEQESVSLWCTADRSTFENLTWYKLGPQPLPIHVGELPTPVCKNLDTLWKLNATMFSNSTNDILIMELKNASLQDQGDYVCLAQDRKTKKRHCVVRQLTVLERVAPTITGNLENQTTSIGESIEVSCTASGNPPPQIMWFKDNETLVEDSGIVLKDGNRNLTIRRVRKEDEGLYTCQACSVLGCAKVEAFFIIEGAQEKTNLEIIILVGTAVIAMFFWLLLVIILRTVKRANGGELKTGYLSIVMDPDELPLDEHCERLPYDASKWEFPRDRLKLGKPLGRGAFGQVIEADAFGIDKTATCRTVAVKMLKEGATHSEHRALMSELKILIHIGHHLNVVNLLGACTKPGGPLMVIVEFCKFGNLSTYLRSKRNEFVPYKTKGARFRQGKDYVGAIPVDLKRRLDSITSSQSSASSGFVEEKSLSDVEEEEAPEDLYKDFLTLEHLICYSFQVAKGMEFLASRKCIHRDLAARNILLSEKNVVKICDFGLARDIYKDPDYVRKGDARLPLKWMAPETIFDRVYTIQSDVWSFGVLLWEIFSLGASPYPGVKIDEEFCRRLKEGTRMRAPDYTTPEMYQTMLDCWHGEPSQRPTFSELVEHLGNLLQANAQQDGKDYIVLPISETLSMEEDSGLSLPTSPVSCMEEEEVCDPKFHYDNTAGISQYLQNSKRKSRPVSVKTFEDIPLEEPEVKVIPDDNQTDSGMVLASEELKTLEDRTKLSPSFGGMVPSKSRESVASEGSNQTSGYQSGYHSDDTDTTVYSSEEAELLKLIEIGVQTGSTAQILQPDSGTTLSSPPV
Protocol: as §1

[11] = target: T3, ALK2 (R206H) (Homo sapiens, UniProt Q04771, R206H); test: Kinase assay (33P-ATP filter-binding), ALK2 R206H; type: biochemical; settings: R206H mutant, 20 mM; read-out: Kinase Selectivity ALK2 (R206H, 20 mM)
T3 sequence (Q04771 21-509 R206H): T2 sequence (Q04771 21-509) with R186H
Summary of the method: as §2

[12] = Protein binding, mouse; type: in vitro ADME
[13] = CL-Hep, value in parentheses, read-out: Intrinsic Clearance Human (CL-Hep)
[14] = read-out: Intrinsic Clearance Human
[15] = CL-Hep, value in parentheses, read-out: Intrinsic Clearance Mouse (CL-Hep)
[16] = read-out: Intrinsic Clearance Mouse

Chain of PDGFRb (P09619 33-1106, species assumed): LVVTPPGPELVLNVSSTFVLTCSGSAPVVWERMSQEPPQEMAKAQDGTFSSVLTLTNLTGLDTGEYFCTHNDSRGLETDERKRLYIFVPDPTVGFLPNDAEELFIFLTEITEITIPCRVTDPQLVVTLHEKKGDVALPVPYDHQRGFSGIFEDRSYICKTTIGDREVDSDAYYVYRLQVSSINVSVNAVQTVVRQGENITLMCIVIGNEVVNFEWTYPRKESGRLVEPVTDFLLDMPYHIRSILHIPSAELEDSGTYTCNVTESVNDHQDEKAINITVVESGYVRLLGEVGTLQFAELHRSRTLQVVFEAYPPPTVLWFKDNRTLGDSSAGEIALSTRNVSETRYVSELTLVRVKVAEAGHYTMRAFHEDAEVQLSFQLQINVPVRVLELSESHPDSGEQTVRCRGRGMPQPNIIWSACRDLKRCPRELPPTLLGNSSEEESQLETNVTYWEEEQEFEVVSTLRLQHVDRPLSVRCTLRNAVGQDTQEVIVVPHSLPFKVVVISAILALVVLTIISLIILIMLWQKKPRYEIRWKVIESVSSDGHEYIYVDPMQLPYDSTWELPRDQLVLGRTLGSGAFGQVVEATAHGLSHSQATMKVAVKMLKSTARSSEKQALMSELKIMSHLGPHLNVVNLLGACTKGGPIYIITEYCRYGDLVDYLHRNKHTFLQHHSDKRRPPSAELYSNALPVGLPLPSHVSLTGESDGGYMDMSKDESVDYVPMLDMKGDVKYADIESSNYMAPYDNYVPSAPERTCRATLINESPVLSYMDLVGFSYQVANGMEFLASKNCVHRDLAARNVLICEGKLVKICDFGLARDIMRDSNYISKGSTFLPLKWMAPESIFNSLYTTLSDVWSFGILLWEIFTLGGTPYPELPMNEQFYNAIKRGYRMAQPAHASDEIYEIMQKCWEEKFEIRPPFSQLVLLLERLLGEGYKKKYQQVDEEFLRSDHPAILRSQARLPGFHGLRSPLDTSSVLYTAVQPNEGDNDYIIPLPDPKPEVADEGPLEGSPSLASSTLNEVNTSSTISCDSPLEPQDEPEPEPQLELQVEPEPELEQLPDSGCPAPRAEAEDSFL

IC50 [1]	IC50 [2]	IC50 [3]	IC50 [4]	CLint scaled [5, 13]	CLint scaled [5, 14]	IC50 [6]	IC50 [7]	IC50 [8]	CLint scaled [9, 15]	CLint scaled [9, 16]	IC50 [10]	IC50 [11]	Protein Binding (% Free) Mouse [12]	Compound
7340 nM	> 100000 nM	354 nM	42.8 nM	17.5 mL/min/kg	139 mL/min/kg	< 5.1 nM	< 5.1 nM	369 nM	42.9 mL/min/kg	82.2 mL/min/kg	47400 nM	< 5.1 nM	2.85 % Free	Cc1cc(-c2cnc3cc(-c4ccc(C5COCC(C)N5)cc4)ccn23)c2cc(F)cc(F)c2n1 (centres unmarked) [Compound 23]
2820 nM	20000 nM	310 nM	197 nM	< 11 mL/min/kg	< 23.1 mL/min/kg	16.5 nM	< 5.1 nM	54.5 nM	< 31.9 mL/min/kg	< 49.5 mL/min/kg	9350 nM	15.8 nM	33.9 % Free	c1cnc2nccc(-c3cnc4cc(-c5ccc(C6CNCCN6)cc5)ccn34)c2c1 (centres unmarked) [Compound 32]
6930 nM	11500 nM	717 nM	84.9 nM	–	–	< 5.1 nM	295 nM	188 nM	–	–	36900 nM	< 5.1 nM	–	O=C1CNC(=O)C(c2ccc(-c3ccn4c(-c5cccc6ncccc56)cnc4c3)cc2)N1 (centres unmarked) [Compound 36]
21700 nM	18900 nM	3290 nM	907 nM	< 10.7 mL/min/kg	< 23.1 mL/min/kg	29.1 nM	13.5 nM	429 nM	< 32.9 mL/min/kg	< 49.5 mL/min/kg	> 100000 nM	326 nM	3.9 % Free	Cc1cc(-c2cnc3cc(-c4ccc(C5COC6(CCNC6)CN5)cc4)ccn23)c2cc(F)cc(F)c2n1 (centres unmarked) [Compound 27]
7700 nM	39100 nM	1140 nM	61.3 nM	< 11 mL/min/kg	< 23.1 mL/min/kg	< 5.1 nM	82.7 nM	188 nM	< 31.9 mL/min/kg	< 49.5 mL/min/kg	39300 nM	< 5.1 nM	8.4 % Free	c1cc(-c2cnc3cc(-c4ccc(C5CNCCN5)cc4)ccn23)c2cccnc2c1 (centres unmarked) [Compound 33]
6490 nM	9320 nM	456 nM	723 nM	< 11 mL/min/kg	< 23.1 mL/min/kg	14.6 nM	20300 nM	231 nM	< 31.9 mL/min/kg	< 49.5 mL/min/kg	31400 nM	13.2 nM	–	NS(=O)(=O)c1ccc(-c2cnc3cc(-c4ccc(C5CNCCN5)cc4)ccn23)c2ccccc12 (centres unmarked) [Compound 37]
7700 nM	39100 nM	1140 nM	152 nM	< 10.7 mL/min/kg	< 23.1 mL/min/kg	< 5.1 nM	< 5.1 nM	188 nM	< 32.9 mL/min/kg	< 49.5 mL/min/kg	39300 nM	< 5.1 nM	4.7 % Free	Cc1cc(-c2cnc3cc(-c4ccc(C5COC6(CCNCC6)CN5)cc4)ccn23)c2cc(F)cc(F)c2n1 (centres unmarked) [Compound 16]
